# Measured values as given in ChEMBL document CHEMBL1139928, “Selective and dual action orally active inhibitors of thrombin and factor Xa” (Bioorg Med Chem Lett, 2007).
# Assays:
# [1] = Half life in Sprague-Dawley rat; format: ADME, organism-based; conditions: in vivo
# [2] = Plasma clearance in Sprague-Dawley rat; format: ADME, organism-based
# [3] = Volume of distribution in Sprague-Dawley rat; format: ADME, organism-based; conditions: in vivo, read-out: Vdss
# [4] = Oral bioavailability in Sprague-Dawley rat; format: ADME, organism-based; conditions: in vivo
# [5] = Half life in Beagle dog; format: ADME, organism-based, Canis lupus familiaris; conditions: in vivo
# [6] = Plasma clearance in Beagle dog; format: ADME, organism-based, Canis lupus familiaris
# [7] = Volume of distribution in Beagle dog; format: ADME, organism-based, Canis lupus familiaris; conditions: in vivo, read-out: Vdss
# [8] = Oral bioavailability in Beagle dog; format: ADME, organism-based, Canis lupus familiaris; conditions: in vivo
SMILES,half-life [1],clearance [2],Vd [3],bioavailability [4],half-life [5],clearance [6],Vd [7],bioavailability [8]
C/C(=C\S(=O)(=O)N[C@H]1CCN([C@@H](C)C(=O)N2CCOCC2)C1=O)c1ccc(Cl)s1,18 min,21 mL/min/kg,0.4 L/kg,32%,36 min,5.7 mL/min/kg,0.3 L/kg,48%
C[C@@H](C(=O)N1CCOCC1)N1CC[C@H](NS(=O)(=O)CCc2ccc(Cl)s2)C1=O,18 min,28 mL/min/kg,0.8 L/kg,31%,30 min,13 mL/min/kg,0.5 L/kg,38%
C[C@@H](C(=O)N1CCOCC1)N1CC[C@H](NS(=O)(=O)/C=C/c2ccc(Cl)s2)C1=O [GW813893],,8 mL/min/kg,0.3 L/kg,,,4.6 mL/min/kg,0.4 L/kg,
